How the values were obtained:
recombinant human CK2 = target: T1, recombinant human CK2 (Homo sapiens, UniProt P68400); assay: CK2 Kinase Assay (33P-ATP, substrate peptide RRRDDDSDDD); format: biochemical; conditions: final ATP concentration 15 μM, 10 min at 30° C.; read-out: protein kinase CK2 activity IC50
T1 construct: purchased Millipore
Method: CK2 Kinase Assay was conducted using the protocol as described in Pierre F. et al; J. Med. Chem. 2011, 54, 635-654. The tested compounds in aqueous solution were added at a volume of 10 μL to a reaction mixture comprising 10 μL of assay dilution buffer (ADB; 20 mM MOPS, pH 7.2, 25 mM β-glycerol phosphate, 5 mM EGTA, 1 mM sodium orthovanadate, and 1 mM dithiothreitol), 10 μL of substrate peptide (RRRDDDSDDD, dissolved in ADB at a concentration of 1 mM), 10 μL of recombinant human CK2 (RROP-holoenzyme, 25 ng dissolved in ADB; Millipore). Reactions were initiated by the addition of 10 μL of ATP solution (90% 75 mMMgCl2, 75 μM ATP (final ATP concentration:15 μM) dissolved in ADB; 10% [7-33P] ATP (stock 1 mCi/100 L; 3000 Ci/mmol (Perkin-Elmer) and maintained for 10 min at 30° C. The reactions were quenched with 100 μL of 0.75% phosphoric acid and then transferred to and filtered through a phosphor cellulose filter plate (Millipore). After washing each well five times with 0.75% phosphoric acid, the plate was dried under vacuum for 5 min and, following the addition of 15 μL of scintillation fluid to each well, the residual radioactivity was measured using a Wallac […] counter. The IC50 values were derived from eight concentrations of test inhibitors.

HL60 (leukemia) = assay: In vitro cytotoxic activity (MTT) assay, HL60; format: cell-based; conditions: Homo sapiens, HL-60; HL60 (leukemia) cells, exposed for 96 hours; read-out: IC50, concentration of compound eliciting a 50% inhibition of cell proliferation
Method: (§1) Compounds 1-12 were screened for their in vitro cytotoxic activity utilizing a 3-(4,5-dimethyl-thiazol-2-yl)-2,5-diphenyltetrazolium bromide (MTT) assay against selected cancer human cell lines consisting of PC3 (prostate), HCT116 (colon), A375 (melanoma), H1299 (lung), MIAPaCa-2 (pancreas), HL60 (leukemia), MCF7 (breast), MDA-MB-231 (breast) (T. Mosmann, J. Immunol. Meth., 1983, 65, 55-63). The cells were cultured at 37° C. in RMPI1640 medium supplemented with 10% fetal bovine serum, 50 IU/mL penicillin, and 50 μg/mL streptomycin in a 5% CO2 incubator. All cells were sub-cultured 3 times/week by trypsinisation. Viable cells were seeded and allowed to adhere for 12 h before a test drug was added in 96-well plates at an initial density of 1.0×10^5 cells/mL. Tumour cell lines were separately exposed to various concentrations of the tested compounds followed by incubation at a temperature of 37° C. during 96 h inside a medium of fresh RMPI 1640. Cells were subsequently incubated at 37° C. using MTT at 0.5 mg/mL during 4 h. After removal of supernatant, formazan crystals were dissolved in isopropanol and the optical density was measured at 570 nm. CX-4945 was used as a positive control.

MDA-MB-231 (breast) = assay: In vitro cytotoxic activity (MTT) assay, MDA-MB-231; format: cell-based; conditions: Homo sapiens; MDA-MB-231 (breast) cells, exposed for 96 hours; read-out: IC50, concentration of compound eliciting a 50% inhibition of cell proliferation
Method: as §1

H1299 (lung) = assay: In vitro cytotoxic activity (MTT) assay, H1299; format: cell-based; conditions: Homo sapiens, NCI-H1299; H1299 (lung) cells, exposed for 96 hours; read-out: IC50, concentration of compound eliciting a 50% inhibition of cell proliferation
Method: as §1

PC3 (prostate) = assay: In vitro cytotoxic activity (MTT) assay, PC3; format: cell-based; conditions: Homo sapiens, Prostate cell; PC3 (prostate) cells, exposed for 96 hours; read-out: IC50, concentration of compound eliciting a 50% inhibition of cell proliferation
Method: as §1

HCT116 (colon) = assay: In vitro cytotoxic activity (MTT) assay, HCT116; format: cell-based; conditions: Homo sapiens, HCT-116; HCT116 (colon) cells, exposed for 96 hours; read-out: IC50, concentration of compound eliciting a 50% inhibition of cell proliferation
Method: as §1

MIAPaCa-2 (pancreas) = assay: In vitro cytotoxic activity (MTT) assay, MIAPaCa-2; format: cell-based; conditions: Homo sapiens, MIA PaCa-2; MIAPaCa-2 (pancreas) cells, exposed for 96 hours; read-out: IC50, concentration of compound eliciting a 50% inhibition of cell proliferation
Method: as §1

A375 (melanoma) = assay: In vitro cytotoxic activity (MTT) assay, A375; format: cell-based; conditions: Homo sapiens, A-375; A375 (melanoma) cells, exposed for 96 hours; read-out: IC50, concentration of compound eliciting a 50% inhibition of cell proliferation
Method: as §1

MCF7 (breast) = assay: In vitro cytotoxic activity (MTT) assay, MCF7; format: cell-based; conditions: Homo sapiens; MCF7 (breast) cells, exposed for 96 hours; read-out: IC50, concentration of compound eliciting a 50% inhibition of cell proliferation
Method: as §1

T1 sequence (P68400 whole entry): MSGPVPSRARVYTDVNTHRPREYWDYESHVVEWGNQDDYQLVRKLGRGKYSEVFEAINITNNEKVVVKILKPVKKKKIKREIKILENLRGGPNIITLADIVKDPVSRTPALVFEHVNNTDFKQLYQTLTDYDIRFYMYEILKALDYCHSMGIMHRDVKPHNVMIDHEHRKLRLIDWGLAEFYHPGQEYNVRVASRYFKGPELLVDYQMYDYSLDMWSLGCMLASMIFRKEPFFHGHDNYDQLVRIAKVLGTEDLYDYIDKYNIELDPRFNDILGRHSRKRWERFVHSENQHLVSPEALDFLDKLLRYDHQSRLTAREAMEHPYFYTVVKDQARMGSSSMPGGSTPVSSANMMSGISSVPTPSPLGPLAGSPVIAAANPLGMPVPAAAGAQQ
T1 sequence (P67870 whole entry partner): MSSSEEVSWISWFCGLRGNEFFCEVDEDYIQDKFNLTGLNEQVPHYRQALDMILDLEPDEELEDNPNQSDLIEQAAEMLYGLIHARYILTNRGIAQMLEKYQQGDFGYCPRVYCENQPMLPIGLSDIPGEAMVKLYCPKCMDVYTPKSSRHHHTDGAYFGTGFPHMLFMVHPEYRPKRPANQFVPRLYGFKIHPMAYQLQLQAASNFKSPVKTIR

IC50 (recombinant human CK2): 0.051 µM
SMILES: O=C(O)c1ccc2c(c1)c1ccncc1n2C(=O)c1cccc(Cl)c1 [Compound 7, 9-(3-chlorobenzoyl)-9H-pyrido[3,4-b]indole-6-carboxylic acid]
IC50 (HL60 (leukemia)): 1.8 µM
IC50 (MDA-MB-231 (breast)): 3.9 µM
IC50 (H1299 (lung)): 1.5 µM
IC50 (PC3 (prostate)): 1.6 µM
IC50 (HCT116 (colon)): 2.4 µM
IC50 (MIAPaCa-2 (pancreas)): 1.9 µM
IC50 (A375 (melanoma)): 3.9 µM
IC50 (MCF7 (breast)): 4.7 µM

From US11939330B1, “Pyrido[3,4-b]indole-6-carboxylic acid compounds as CK2 inhibitors” (KING FAISAL UNIVERSITY, priority 2023, dated 2024)
